Data from PMC10226132, “First-in-Class Selective Inhibitors of the Lysine Acetyltransferase KAT8” (Journal of Medicinal Chemistry, 2023).
Where two headings read alike, the source gives them in different places.

Columns and labels:
Format in all cases: biochemical
KAT8 = target: T1, KAT8 (Homo sapiens, UniProt Q9H7Z6); experiment: Radioactive KAT8 inhibition assay
T1 construct: using the previously purified KAT8 (173–458, 5 nM); 6xHis tag with TEV protease cleavage site (N, cleaved yes); made in house; host or cells: E. coli BL21(DE3)
T1 sequence (Q9H7Z6 173-458): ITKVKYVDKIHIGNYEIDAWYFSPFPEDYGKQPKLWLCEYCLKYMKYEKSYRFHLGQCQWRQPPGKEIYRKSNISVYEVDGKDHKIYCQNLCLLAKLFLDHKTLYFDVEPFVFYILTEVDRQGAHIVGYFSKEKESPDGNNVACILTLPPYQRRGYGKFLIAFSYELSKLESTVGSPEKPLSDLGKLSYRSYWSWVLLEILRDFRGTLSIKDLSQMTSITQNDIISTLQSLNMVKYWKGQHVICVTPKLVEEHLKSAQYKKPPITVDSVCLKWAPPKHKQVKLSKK
Description: Purified KAT8 was incubated with the relevant inhibitor (1% DMSO final) in a 2-fold serial dilution starting at 200 μM for 20 min at rt. Then, [^3H]Ac-CoA and biotinylated peptide were added to a total assay volume of 50 μL and the reaction mixture was incubated at rt for 4 h. The reaction was stopped, and the mixture was transferred to a 96-well streptavidin scintillant coated FlashPlate (Perkin Elmer) and incubated for 60 min at rt. The FlashPlate was washed with 0.1% Tween-20, and the liquid scintillation counting (MicroBeta Microplate Counter, Perkin Elmer) was employed to measure the radioactive signal. Experiments were performed in biological triplicates. Signal reduction compared to control was plotted (as inhibition percentage) as a function of compound concentration and fitted by nonlinear regression (GraphPad Prism 8.0) finally yielding the IC50 values.

KAT3B = target: T2, KAT3B (Homo sapiens, UniProt Q09472); experiment: HotSpot KAT assay, KAT3B
T2 construct: KAT3B (aa 1284–1672, 1 nM); purchased Reaction Biology Corporation
T2 sequence (Q09472 1284-1672): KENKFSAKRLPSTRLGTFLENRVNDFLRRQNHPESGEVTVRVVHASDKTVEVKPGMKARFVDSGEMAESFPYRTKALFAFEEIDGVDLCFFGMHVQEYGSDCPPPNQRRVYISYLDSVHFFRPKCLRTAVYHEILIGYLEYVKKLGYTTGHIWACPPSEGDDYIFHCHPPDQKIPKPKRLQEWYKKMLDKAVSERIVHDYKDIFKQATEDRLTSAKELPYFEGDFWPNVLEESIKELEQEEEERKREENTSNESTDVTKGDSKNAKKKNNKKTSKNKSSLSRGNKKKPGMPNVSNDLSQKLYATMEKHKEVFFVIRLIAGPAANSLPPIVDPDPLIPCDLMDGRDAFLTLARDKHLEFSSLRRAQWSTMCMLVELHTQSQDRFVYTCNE
Description: The effects of the compounds on other KATs were determined using the HotSpot KAT assay (Reaction Biology Corporation, Malvern, PA, USA) according to the supplier’s procedure. […] Histone peptide acetylation was assessed by liquid scintillation counting using a Tri-Carb 2800TR Liquid Scintillation Analyzer (Perkin Elmer). Experiments were performed in biological triplicates. Signal reduction compared to control was plotted (as inhibition percentage) as a function of compound concentration. In cases in which an IC50 was calculated, the values were fitted by nonlinear regression (GraphPad Prism 8.0).

KAT2B = target: T3, KAT2B (Homo sapiens, UniProt Q92831); experiment: HotSpot KAT assay, KAT2B; conditions: enzyme 25 nM; NI = no inhibition at 200 μM; mean ± SD of three independent experiments
T3 construct: KAT2B (aa 492–658, 25 nM); purchased Reaction Biology Corporation
T3 sequence (Q92831 492-658): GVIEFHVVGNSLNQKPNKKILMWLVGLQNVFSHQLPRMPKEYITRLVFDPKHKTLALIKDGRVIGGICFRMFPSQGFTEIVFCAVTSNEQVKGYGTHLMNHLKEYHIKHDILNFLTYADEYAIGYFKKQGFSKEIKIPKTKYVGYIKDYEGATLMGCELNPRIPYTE
Description: (§1) The effects of the compounds on other KATs were determined using the HotSpot KAT assay (Reaction Biology Corporation, Malvern, PA, USA) according to the supplier’s procedure. The recombinant catalytic domains of human KAT2A (aa 323–837, 15 nM), KAT2B (aa 492–658, 25 nM), KAT3B (aa 1284–1672, 1 nM), KAT6A (aa 488–778, 10 nM), KAT6B (aa 657–1069, 10 nM), and full length human KAT5 (25 nM) and KAT7 (25 nM) were used. Each enzyme was incubated with the relevant histone peptide [H3 peptide for KAT2A, KAT2B, KAT3B, KAT6A, and KAT7 (2.5–5 μM, depending on the KAT isoform); H2A peptide for KAT5 (1.25 μM); H4 peptide for KAT6B (2.5 μM)] as a substrate and radio-isotope-labeled [^3H]Acetyl-CoA (0.2–1.5 μM, depending on the KAT isoform) as an acetyl donor in the assay buffer [50 mM Tris–HCl (pH 8.0), 50 mM NaCl, 0.1 mM EDTA, 1 mM DTT, 0.1 mM PMSF, 1% DMSO] for 1 h at 30 °C in the presence or absence of various compounds (1% DMSO final) titrated in a 2-fold serial dilution starting at 200 μM. Histone peptide acetylation was assessed by liquid scintillation counting using a Tri-Carb 2800TR Liquid Scintillation Analyzer (Perkin Elmer). Experiments were performed in biological triplicates. Signal reduction compared to control was plotted (as inhibition percentage) as a function of compound concentration. In cases in which an IC50 was calculated, the values were fitted by nonlinear regression (GraphPad Prism 8.0).

KAT2A = target: T4, KAT2A (Homo sapiens, UniProt Q92830); experiment: HotSpot KAT assay, KAT2A; conditions: control compound; read-out: IC50 KAT2A (15 nM)
T4 construct: human KAT2A (aa 323–837, 15 nM); purchased Reaction Biology Corporation
T4 sequence (Q92830 323-837): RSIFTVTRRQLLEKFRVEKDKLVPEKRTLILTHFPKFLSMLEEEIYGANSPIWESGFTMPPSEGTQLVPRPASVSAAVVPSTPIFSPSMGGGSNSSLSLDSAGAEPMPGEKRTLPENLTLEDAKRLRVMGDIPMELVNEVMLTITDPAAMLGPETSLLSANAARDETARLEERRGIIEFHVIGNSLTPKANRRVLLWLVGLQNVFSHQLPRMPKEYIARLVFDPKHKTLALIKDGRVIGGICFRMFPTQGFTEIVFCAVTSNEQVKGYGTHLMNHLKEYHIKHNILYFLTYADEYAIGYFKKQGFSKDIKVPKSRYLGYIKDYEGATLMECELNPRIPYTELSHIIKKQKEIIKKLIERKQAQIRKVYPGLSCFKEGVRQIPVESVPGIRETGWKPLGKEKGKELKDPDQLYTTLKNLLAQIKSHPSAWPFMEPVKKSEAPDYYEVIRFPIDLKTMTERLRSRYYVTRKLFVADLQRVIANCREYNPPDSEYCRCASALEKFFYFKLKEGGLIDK
Description: as §1

[1] = read-out: IC50 KAT8 (5 nM), enzyme 5 nM, 2-fold serial dilution from 200 μM, NI = no inhibition at 200 μM, mean ± SD of three independent experiments
[2] = read-out: IC50 KAT3B (1 nM), enzyme 1 nM, NI = no inhibition at 200 μM, mean ± SD of three independent experiments

| SMILES | IC50 (KAT8; [1]) | IC50 (KAT3B; [2]) | IC50 (KAT2B) | IC50 (KAT2A) | IC50 (KAT8) | IC50 (KAT3B) |
| --- | --- | --- | --- | --- | --- | --- |
| CC1=NN(c2ccc(C(N)=O)cc2)C(=O)/C1=C\c1ccc[nH]1 [Compound 37, (Z)-4-(4-((1H-Pyrrol-2-yl)methylene)-3-methyl-5-oxo-4,5-dihydro-1H-pyrazol-1-yl)benzamide] | 33.2 ± 2.4 µM | > 200 µM | > 200 µM |  |  |  |
| CC1=NN(c2ccc(C(=O)O)cc2)C(=O)/C1=C\c1cccn1C [Compound 28, (Z)-4-(3-Methyl-4-((1-methyl-1H-pyrrol-2-yl)methylene)-5-oxo-4,5-dihydro-1H-pyrazol-1-yl)benzoic Acid] | 15.1 ± 1 µM | 20.8 ± 1 µM | > 200 µM |  |  |  |
| CC1=NN(c2ccc(C(=O)O)cc2)C(=O)/C1=C\c1cc[nH]c1 [Compound 23, (Z)-4-(4-((1H-Pyrrol-3-yl)methylene)-3-methyl-5-oxo-4,5-dihydro-1H-pyrazol-1-yl)benzoic Acid] | 33 ± 2 µM | > 200 µM | > 200 µM |  |  |  |
| CC1=NN(c2ccc(C(=O)O)cc2)C(=O)/C1=C\c1cccs1 [Compound 21, (Z)-4-(3-Methyl-5-oxo-4-(thiophen-2-ylmethylene)-4,5-dihydro-1H-pyrazol-1-yl)benzoic Acid] | 20.8 ± 1.2 µM | 26.5 ± 1.7 µM | > 200 µM |  |  |  |
| CC1=NN(c2cccc(C(=O)O)c2)C(=O)/C1=C\c1ccc[nH]1 [Compound 36, (Z)-3-(4-((1H-Pyrrol-2-yl)methylene)-3-methyl-5-oxo-4,5-dihydro-1H-pyrazol-1-yl)benzoic Acid] | 19.3 ± 1.3 µM | > 200 µM | > 200 µM |  |  |  |
| CC1=NN(c2ccc(C(=O)N(C)C)cc2)C(=O)/C1=C\c1ccc[nH]1 [Compound 38, (Z)-4-(4-((1H-Pyrrol-2-yl)methylene)-3-methyl-5-oxo-4,5-dihydro-1H-pyrazol-1-yl)-N,N-dimethylbenzamide] | 29.5 ± 1.8 µM | > 200 µM | > 200 µM |  |  |  |
| CC1=NN(c2ccc(C(=O)O)cc2)C(=O)C1=Cc1ccco1 (mixture of isomers) [Compound 20, 4-(4-(Furan-2-ylmethylene)-3-methyl-5-oxo-4,5-dihydro-1H-pyrazol-1-yl)benzoic Acid] |  |  | > 200 µM |  | 16.8 ± 0.9 µM | 6.3 ± 0.4 µM |
| O=C(O)c1ccc(N2N=C(Cc3ccccc3)/C(=C/c3ccc[nH]3)C2=O)cc1 [Compound 35, (Z)-4-(4-((1H-Pyrrol-2-yl)methylene)-3-benzyl-5-oxo-4,5-dihydro-1H-pyrazol-1-yl)benzoic Acid] |  | > 200 µM | > 200 µM |  | 38.1 ± 3.8 µM |  |
| CC1=NN(c2ccc(C(=O)O)cc2)C(=O)/C1=C\c1cc(C(=O)c2ccccc2[N+](=O)[O-])c[nH]1 [Compound 2, (Z)-4-(3-Methyl-4-((4-(2-nitrobenzoyl)-1H-pyrrol-2-yl)methylene)-5-oxo-4,5-dihydro-1H-pyrazol-1-yl)benzoic Acid] | 86.2 ± 10 µM | 9.1 ± 0.6 µM | > 200 µM |  |  |  |

Next, values leading:

| IC50 (KAT8; [1]) | IC50 (KAT3B; [2]) | IC50 (KAT2B) | IC50 (KAT2A) | IC50 (KAT8) | IC50 (KAT3B) | SMILES |
| --- | --- | --- | --- | --- | --- | --- |
| 90.5 ± 11.3 µM | 13.6 ± 1 µM | > 200 µM |  |  |  | CC1=NN(c2ccc(C(=O)O)cc2)C(=O)/C1=C\c1cc(C(=O)c2ccccc2)c[nH]1 [Compound 1, (Z)-4-(4-((4-Benzoyl-1H-pyrrol-2-yl)methylene)-3-methyl-5-oxo-4,5-dihydro-1H-pyrazol-1-yl)benzoic Acid] |
| 26.9 ± 2.3 µM | > 200 µM | > 200 µM |  |  |  | Cc1nn(-c2ccc(C(=O)O)cc2)c(O)c1Cc1ccccc1 [Compound 32, 4-(4-Benzyl-5-hydroxy-3-methyl-1H-pyrazol-1-yl)benzoic Acid] |
| 19.4 ± 0.9 µM | > 200 µM | > 200 µM |  |  |  | CC1=NN(c2ccc(C(=O)O)cc2)C(=O)/C1=C(/C)c1ccc[nH]1 [Compound 30, (Z)-4-(4-(1-(1H-Pyrrol-2-yl)ethylidene)-3-methyl-5-oxo-4,5-dihydro-1H-pyrazol-1-yl)benzoic Acid] |
| 38.1 ± 2.9 µM | 4.6 ± 0.2 µM | > 200 µM |  |  |  | CC1=NN(c2ccc(C(=O)O)cc2)C(=O)/C1=C\c1c[nH]c2ccccc12 [Compound 27, (Z)-4-(4-((1H-Indol-3-yl)methylene)-3-methyl-5-oxo-4,5-dihydro-1H-pyrazol-1-yl)benzoic Acid] |
| 29.2 ± 1.7 µM | > 200 µM | > 200 µM |  |  |  | CC1=NN(c2ccc(C(=O)O)cc2)C(=O)/C1=C\c1ccccc1 [Compound 22, (Z)-4-(4-Benzylidene-3-methyl-5-oxo-4,5-dihydro-1H-pyrazol-1-yl)benzoic Acid] |
| 18.6 ± 0.8 µM | 14.6 ± 0.6 µM | > 200 µM |  |  |  | CC1=NN(c2ccc(C(=O)O)cc2)C(=O)/C1=C\c1cccn1-c1ccccc1 [Compound 29, (Z)-4-(3-Methyl-5-oxo-4-((1-phenyl-1H-pyrrol-2-yl)methylene)-4,5-dihydro-1H-pyrazol-1-yl)benzoic Acid] |
| 44.1 ± 3 µM | > 200 µM | > 200 µM |  |  |  | CC1=NN(c2ccc(C(=O)O)cc2)C(=O)/C1=C\c1ccn[nH]1 [Compound 24, (Z)-4-(4-((1H-Pyrazol-5-yl)methylene)-3-methyl-5-oxo-4,5-dihydro-1H-pyrazol-1-yl)benzoic Acid] |
| 88.9 ± 12.1 µM | 5.3 ± 0.3 µM | > 200 µM |  |  |  | CC1=NN(c2ccc(C(=O)O)cc2)C(=O)/C1=C\c1cc(C(=O)c2ccccc2Cl)c[nH]1 [Compound 5, (Z)-4-(4-((4-(2-Chlorobenzoyl)-1H-pyrrol-2-yl)methylene)-3-methyl-5-oxo-4,5-dihydro-1H-pyrazol-1-yl)benzoic Acid] |
| 17.2 ± 1.2 µM | > 200 µM | > 200 µM |  |  |  | Cc1nn(-c2ccc(C(=O)O)cc2)c(O)c1Cc1ccc[nH]1 [Compound 31, 4-(4-((1H-Pyrrol-2-yl)methyl)-5-hydroxy-3-methyl-1H-pyrazol-1-yl)benzoic Acid] |
| 31.8 ± 2.1 µM | 29.2 ± 1.7 µM | > 200 µM |  |  |  | CC1=NN(c2ccc(C(=O)O)cc2)C(=O)/C1=C\c1c[nH]cn1 [Compound 25, (Z)-4-(4-((1H-Imidazol-4-yl)methylene)-3-methyl-5-oxo-4,5-dihydro-1H-pyrazol-1-yl)benzoic Acid] |
|  | 22.9 ± 1.3 µM | 39.7 ± 1.1 µM | 42.1 µM |  |  | CCCCCCCCCCCCCCCc1cccc(O)c1C(=O)O [I (AA), anacardic acid, reference compound] |
